Test results: patent publication US20100317647A1 (priority 2009, published 2010)

Molecular target: human Cat S (Homo sapiens, UniProt P25774)
Assay: Cathepsin enzyme inhibition assay (fluorogenic peptide substrate cleavage)
Type: biochemical
Details: human Cat S 1 nM; substrate Z-Val-Val-Arg-AMC 20 μM; pH 6.5; fluorescence over 20 minutes
Procedure, shortened: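 Fluorogenic cleavage of Z-Val-Val-Arg-AMC (20 μM) by 1 nM enzyme in 100 mM potassium phosphate pH 6.5, 5 mM EDTA, 5 mM DTT, 0.001% Triton X-100. Reaction started with substrate; fluorescence (ex 360/em 465 nm) followed over 20 minutes. IC50 by standard methods.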

human Cat S, sequence (P25774 115-331): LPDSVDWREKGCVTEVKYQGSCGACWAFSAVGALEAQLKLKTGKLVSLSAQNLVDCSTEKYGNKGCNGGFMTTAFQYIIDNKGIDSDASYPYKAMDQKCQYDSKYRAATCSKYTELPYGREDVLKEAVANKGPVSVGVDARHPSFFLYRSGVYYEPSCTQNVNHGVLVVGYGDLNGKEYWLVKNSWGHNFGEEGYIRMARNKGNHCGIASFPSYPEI

SMILES | IC50 [nM]
CN1CCC(C#N)(NC(=O)[C@@H]2C[C@@H](S(=O)(=O)c3ccc(Cl)cc3Cl)C[C@H]2OCc2ccc(Cl)cc2)CC1 (racemic) [Example 234, (1R,2R,4R) and (1S,2S,4S)-2-(4-Chloro-benzyloxy)-4-(2,4-dichloro-benzenesulfonyl)-cyclopentanecarboxylic acid (4-cyano-1-methyl-piperidin-4-yl)-amide] | 19
CN1CCC(C#N)(NC(=O)[C@@H]2C[C@@H](S(=O)(=O)c3ccccc3C(F)(F)F)C[C@H]2OCc2ccc(Cl)cc2)CC1 (racemic) [Example 235, (1R,2R,4R) and (1S,2S,4S)-2-(4-Chloro-benzyloxy)-4-(2-trifluoromethyl-benzenesulfonyl)-cyclopentanecarboxylic acid (4-cyano-1-methyl-piperidin-4-yl)-amide] | 7.3
CO[C@@H]1C[C@H](S(=O)(=O)c2ccc(-c3cnn(C)c3)cc2C(F)(F)F)C[C@H]1C(=O)NC1(C#N)CCN(C)CC1 (racemic) [Example 236, (1R,2R,4R) and (1S,2S,4S)-2-Methoxy-4-[4-(1-methyl-1H-pyrazol-4-yl)-2-trifluoromethyl-benzenesulfonyl]-cyclopentanecarboxylic acid (4-cyano-1-methyl-piperidin-4-yl)-amide] | 1.8
CCOC(=O)N1CCC(C#N)(NC(=O)[C@@H]2C[C@@H](S(=O)(=O)c3ccc(-c4cnn(C)c4)cc3C(F)(F)F)C[C@H]2OC)CC1 (racemic) [Example 237, 4-Cyano-4-({(1R,2R,4R) and (1S,2S,4S)-2-methoxy-4-[4-(1-methyl-1H-pyrazol-4-yl)-2-trifluoromethyl-benzenesulfonyl]-cyclopentanecarbonyl}-amino)-piperidine-1-carboxylic acid ethyl ester] | 2.2
CCN1CCC(C#N)(NC(=O)[C@@H]2C[C@@H](S(=O)(=O)c3ccc(-c4cnn(C)c4)cc3C(F)(F)F)C[C@H]2OC)CC1 (racemic) [Example 238, (1R,2R,4R) and (1S,2S,4S)-2-Methoxy-4-[4-(1-methyl-1H-pyrazol-4-yl)-2-trifluoromethyl-benzenesulfonyl]-cyclopentanecarboxylic acid (4-cyano-1-ethyl-piperidin-4-yl)-amide] | 2.35
CCN1CCC(C#N)(NC(=O)[C@@H]2C[C@@H](S(=O)(=O)c3ccccc3C(F)(F)F)C[C@H]2OCc2ccc(Cl)cc2)CC1 (racemic) [Example 239, (1R,2R,4R) and (1S,2S,4S)-2-(4-Chloro-benzyloxy)-4-(2-trifluoromethyl-benzenesulfonyl)-cyclopentanecarboxylic acid (4-cyano-1-ethyl-piperidin-4-yl)-amide] | 6.25
CCN1CCC(C#N)(NC(=O)[C@@H]2C[C@@H](S(=O)(=O)c3ccc(Cl)cc3Cl)C[C@H]2OCc2ccc(Cl)cc2)CC1 (racemic) [Example 240, (1R,2R,4R) and (1S,2S,4S)-2-(4-Chloro-benzyloxy)-4-(2,4-dichloro-benzenesulfonyl)-cyclopentanecarboxylic acid (4-cyano-1-ethyl-piperidin-4-yl)-amide] | 25.5
CCOC(=O)N1CCC(C#N)(NC(=O)[C@@H]2C[C@@H](S(=O)(=O)c3ccccc3C(F)(F)F)C[C@H]2OCc2ccc(Cl)cc2)CC1 (racemic) [Example 241, 4-{[(1R,2R,4R) and (1S,2S,4S)-2-(4-Chloro-benzyloxy)-4-(2-trifluoromethyl-benzenesulfonyl)-cyclopentanecarbonyl]-amino}-4-cyano-piperidine-1-carboxylic acid ethyl ester] | 12
N#CCNC(=O)[C@@H]1C[C@@H](S(=O)(=O)c2ccccc2Cl)C[C@H]1COc1ccc(Cl)cc1 (single isomer, unassigned) [Example 68] | 2.2
N#CCNC(=O)[C@@H]1C[C@H](S(=O)(=O)c2ccccc2Cl)C[C@H]1COc1ccc(Cl)cc1 (single isomer, unassigned) [Example 69] | 810
N#CC1(NC(=O)[C@@H]2C[C@@H](S(=O)(=O)c3ccccc3Cl)C[C@H]2COc2ccc(Cl)cc2)CC1 (single isomer, unassigned) [Example 70] | 3.4
N#CC1(NC(=O)[C@@H]2C[C@H](S(=O)(=O)c3ccccc3Cl)C[C@H]2COc2ccc(Cl)cc2)CC1 (single isomer, unassigned) [Example 71] | 3080
N#CC1(NC(=O)[C@H]2CC[C@H](S(=O)(=O)c3ccc(OCC(F)(F)F)cc3Cl)C2)CC1 (single isomer, unassigned) [Example 98] | 160
N#CC1(NC(=O)[C@H]2CC[C@@H](S(=O)(=O)c3ccc(OCC(F)(F)F)cc3Cl)C2)CC1 (single isomer, unassigned) [Example 99] | 500
N#CC1(NC(=O)[C@H]2CC[C@H](S(=O)(=O)c3ccc(-n4cccn4)cc3Cl)C2)CC1 (single isomer, unassigned) [Example 100] | 170
N#CC1(NC(=O)[C@H]2CC[C@@H](S(=O)(=O)c3ccc(-n4cccn4)cc3Cl)C2)CC1 (single isomer, unassigned) [Example 101] | 610
COC[C@@H]1C[C@H](S(=O)(=O)c2ccccc2Cl)C[C@H]1C(=O)NCC#N (single isomer, unassigned) [Example 103] | 20.7

The remaining lines, values ahead:

IC50 [nM] | SMILES
92 | CCOC(=O)N1CCC(C#N)(NC(=O)[C@@H]2C[C@@H](S(=O)(=O)c3ccc(Cl)cc3Cl)C[C@H]2OCc2ccc(Cl)cc2)CC1 (racemic) [Example 242, 4-{[(1R,2R,4R) and (1S,2S,4S)-2-(4-Chloro-benzyloxy)-4-(2,4-dichloro-benzenesulfonyl)-cyclopentanecarbonyl]-amino}-4-cyano-piperidine-1-carboxylic acid ethyl ester]
1.45 | N#CC1(NC(=O)[C@@H]2C[C@@H](S(=O)(=O)c3ccccc3Cl)C[C@H]2Oc2ccc(Cl)cc2)CC1 (racemic) [Example 243, (1R,2R,4R) and (1S,2S,4S)-4-(2-Chloro-benzenesulfonyl)-2-(4-chloro-phenoxy)-cyclopentanecarboxylic acid (1-cyano-cyclopropyl)-amide]
14.7 | CC(C)(O[C@@H]1C[C@H](S(=O)(=O)c2ccccc2Cl)C[C@H]1C(=O)NC1(C#N)CC1)c1ccc(Cl)cc1 (racemic) [Example 244, (1R,2R,4R) and (1S,2S,4S)-2-(2-(4-chlorophenyl)propan-2-yloxy)-4-(2-chlorophenylsulfonyl)-N-(1-cyanocyclopropyl)cyclopentanecarboxamide]
11.4 | Cc1ccc(C(C)(C)O[C@@H]2C[C@H](S(=O)(=O)c3ccccc3Cl)C[C@H]2C(=O)NC2(C#N)CC2)cc1 (racemic) [Example 245, (1R,2R,4R) and (1S,2S,4S)-4-(2-chlorophenylsulfonyl)-N-(1-cyanocyclopropyl)-2-(2-p-tolylpropan-2-yloxy)cyclopentanecarboxamide]
1.25 | COCc1cn(-c2ccc(S(=O)(=O)[C@@H]3C[C@H](OC)[C@@H](C(=O)NC4(C#N)CC4)C3)c(C(F)(F)F)c2)nn1 (racemic) [Example 246, (1S,2S,4S) and (1R,2R,4R)-2-Methoxy-4-[4-(4-methoxymethyl-[1,2,3]triazol-1-yl)-2-trifluoromethyl-benzenesulfonyl]-cyclopentanecarboxylic acid (1-cyano-cyclopropyl)-amide]
5.98 | N#CC1(NC(=O)[C@@H]2C[C@@H](S(=O)(=O)c3ccccc3Cl)C[C@H]2OCc2ccc(C(F)(F)F)cc2)CC1 (racemic) [Example 247, (1R,2R,4R) and (1S,2S,4S)-4-(2-chlorophenylsulfonyl)-N-(1-cyanocyclopropyl)-2-(4-(trifluoromethyl)benzyloxy)cyclopentanecarboxamide]
3.5 | CS(=O)(=O)c1cc(Cl)ccc1CO[C@@H]1C[C@H](S(=O)(=O)c2ccccc2Cl)C[C@H]1C(=O)NC1(C#N)CC1 (racemic) [Example 248, (1R,2R,4R) and (1S,2S,4S)-4-(2-Chloro-benzenesulfonyl)-2-(4-chloro-2-methanesulfonyl-benzyloxy)-cyclopentanecarboxylic acid (1-cyano-cyclopropyl)-amide]
6.95 | N#CC1(NC(=O)[C@@H]2C[C@@H](S(=O)(=O)c3ccccc3Cl)C[C@H]2OCc2ccc(Cl)c(F)c2)CC1 (racemic) [Example 249, (1R,2R,4R) and (1S,2S,4S)-4-(2-Chloro-benzenesulfonyl)-2-(4-chloro-3-fluoro-benzyloxy)-cyclopentanecarboxylic acid (1-cyano-cyclopropyl)-amide]
62.5 | N#CC1(NC(=O)[C@@H]2C[C@@H](S(=O)(=O)c3ccccc3Cl)C[C@H]2OCc2ccc(Cl)c(Cl)c2)CC1 (racemic) [Example 250, (1R,2R,4R) and (1S,2S,4S)-4-(2-Chloro-benzenesulfonyl)-2-(3,4-dichloro-benzyloxy)-cyclopentanecarboxylic acid (1-cyano-cyclopropyl)-amide]
6.11 | N#CC1(NC(=O)[C@@H]2C[C@@H](S(=O)(=O)c3ccccc3Cl)C[C@H]2OCc2c(F)cc(Cl)cc2F)CC1 (racemic) [Example 251, (1R,2R,4R) and (1S,2S,4S)-4-(2-Chloro-benzenesulfonyl)-2-(4-chloro-2,6-difluoro-benzyloxy)-cyclopentanecarboxylic acid (1-cyano-cyclopropyl)-amide]
4.99 | N#CC1(NC(=O)[C@@H]2C[C@@H](S(=O)(=O)c3ccccc3Cl)C[C@H]2OCc2ccc(Cl)cc2F)CC1 (racemic) [Example 252, (1R,2R,4R) and (1S,2S,4S)-4-(2-Chloro-benzenesulfonyl)-2-(4-chloro-2-fluoro-benzyloxy)-cyclopentanecarboxylic acid (1-cyano-cyclopropyl)-amide]
0.675 | CO[C@H]1C[C@@H](S(=O)(=O)c2ccc(-n3cc(CCO)nn3)cc2C(F)(F)F)C[C@@H]1C(=O)NC1(C#N)CC1 (racemic) [Example 253, (1S,2S,4S) and (1R,2R,4R)-4-{4-[4-(2-Hydroxy-ethyl)-[1,2,3]triazol-1-yl]-2-trifluoromethyl-benzenesulfonyl}-2-methoxy-cyclopentanecarboxylic acid (1-cyano-cyclopropyl)-amide]
